Laboratory results from US20150005307A1, “Drug Delivery Technology” (LondonPharma Ltd., priority 2011, published 2015).
Counter-ions that a name gives are not always drawn.

Assay: Solubility of PDE5 inhibitors in formulation carriers and co-solvents
Conditions: for solubility in water: result in words
Excerpt: In the absence of ethanol an alternative preservative could be used, though methyl parabens and potassium sorbate precipitated out of solution.
Suitable sweeteners were sucralose (0.05%) and suitable flavourings were strawberry flavour 501094 (0.5%) and orange juice flavour 506304 (0.5%).
Cremophor EL (macrogol glycerol ricinoleate Ph Eur) was identified as a component that was able to maintain menthol, peppermint oil, aniseed and lemon oil in solution. These flavours were firstly mixed at 10% w/w with Cremophor EL, and the resultant combination then mixed with water (10% w/w in purified water). […] Note that vanillin also degraded in Cremophor EL, rendering it unusable. […] The action of Cremophor EL here is that of a water-miscible oil-based solvent. Sildenafil and vardenafil remained in solution at a concentration of at least 60 mg/ml and 30 mg/ml, respectively, in the presence of 10% Cremophor EL.

[1] = Miglyol 810 (medium-chain triglycerides Ph Eur), with or without ethanol

Compound	solubility in Miglyol 810 [1]	solubility in other potential solvents e.g. PEG (PEG, even using ethanol as a co-solvent)	solubility in water (water)	solubility in Miglyol 810	solubility (water) [mg/mL]
CN1CC(=O)N2[C@H](c3ccc4c(c3)OCO4)c3[nH]c4ccccc4c3C[C@@H]2C1=O [Tadalafil (base), Tadalafil]	insoluble	insoluble	insoluble		
CCCc1nc(C)c2c(=O)[nH]c(-c3cc(S(=O)(=O)N4CCN(CC)CC4)ccc3OCC)nn12 [Vardenafil (hydrochloride trihydrate), vardenafil hydrochloride trihydrate]				insoluble	≥ 50
CCCc1nn(C)c2c(=O)[nH]c(-c3cc(S(=O)(=O)N4CCN(C)CC4)ccc3OCC)nc12 [sildenafil (base), sildenafil]	Neither sildenafil (base) nor sildenafil citrate were found to be soluble		Neither sildenafil (base) nor sildenafil citrate were found to be soluble		
